From ChEMBL document CHEMBL1201862, “PubChem BioAssay data set” (2004)
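Test compounds were applied to cells in 96-well plates for 48 hours at 5 doses. At the GI50, growth is halved.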 Activity calls are given as the source filed them. Rule as the data show it: active = GI50 up to about 1.1 µM and inactive = higher.

Key:
Test in all cases: NCI-60 cell line screen, 48 h
[1] = test system: SNB-78
[2] = test system: SF-268
[3] = test system: SNB-19
[4] = test system: NCI-H460
[5] = test system: HOP-92
[6] = test system: SN12C
[7] = test system: M19-MEL
[8] = test system: SK-OV-3
[9] = test system: SK-MEL-5
[10] = test system: HOP-18
[11] = test system: OVCAR-5
[12] = test system: SR
[13] = test system: CCRF-CEM
[14] = test system: NCI-H522
[15] = test system: RXF 393
[16] = test system: UACC-257
[17] = test system: TK-10
[18] = test system: UO-31
[19] = test system: COLO 205
[20] = test system: DLD-1
[21] = test system: M14
[22] = test system: CAKI-1
[23] = test system: 786-0
[24] = test system: IGROV-1
[25] = test system: NCI-H226
[26] = test system: A498
[27] = test system: DMS-273
[28] = test system: OVCAR-4
[29] = test system: DMS-114
[30] = test system: HOP-62
[31] = test system: MOLT-4
[32] = test system: LXFL 529
[33] = test system: SW-620
[34] = test system: NCI-H23
[35] = test system: A549
[36] = test system: HCT-116
[37] = test system: OVCAR-3
[38] = test system: HT-29
[39] = test system: OVCAR-8
[40] = test system: SF-295
[41] = test system: SF-539
[42] = test system: EKVX
[43] = test system: RXF 631
[44] = test system: RPMI-8226
[45] = test system: ACHN
[46] = test system: HL-60
[47] = test system: K562
[48] = test system: HCT-15
[49] = test system: HCC 2998
[50] = test system: LOX IMVI
[51] = test system: SNB-75
[52] = test system: Malme-3M
[53] = test system: U-251
[54] = test system: SK-MEL-28
[55] = test system: KM12
[56] = test system: SK-MEL-2
[57] = test system: KM-20L2
[58] = test system: UACC-62

## COC(=O)C12Oc3ccc(-c4ccc5c(c4O)C(=O)C4=CCC(C)C(O)C4(C(=O)OC)O5)c(O)c3C(=O)C1=CCC(C)C2O (configuration not stated)
[1]
  GI50: 1.95 µM (inactive)
[2]
  GI50: 1.1 µM (active)
[3]
  GI50: 2.34 µM (inactive)
[4]
  GI50: 1.97 µM (inactive)
[5]
  GI50: 1.26 µM (inactive)
[6]
  GI50: 1.98 µM (inactive)
[7]
  GI50: 1.48 µM (inactive)
[8]
  GI50: 1.96 µM (inactive)
[9]
  GI50: 1.63 µM (inactive)
[10]
  GI50: 2.26 µM (inactive)
[11]
  GI50: 2.13 µM (inactive)
[12]
  GI50: 0.843 µM (active)
[13]
  GI50: 0.733 µM (active)
[14]
  GI50: 1.01 µM (active)
[15]
  GI50: 1.63 µM (inactive)
[16]
  GI50: 1.82 µM (inactive)
[17]
  GI50: 2.44 µM (inactive)
[18]
  GI50: 1.46 µM (inactive)
[19]
  GI50: 1.32 µM (inactive)
[20]
  GI50: 0.798 µM (active)
[21]
  GI50: 1.63 µM (inactive)
[22]
  GI50: 2.07 µM (inactive)
[23]
  GI50: 1.53 µM (inactive)
[24]
  GI50: 1.62 µM (inactive)
[25]
  GI50: 2.09 µM (inactive)
[26]
  GI50: 2.19 µM (inactive)
[27]
  GI50: 1.62 µM (inactive)
[28]
  GI50: 2.21 µM (inactive)
[29]
  GI50: 1.3 µM (inactive)
[30]
  GI50: 2.18 µM (inactive)
[31]
  GI50: 5.66 µM (inactive)
[32]
  GI50: 1.19 µM (inactive)
[33]
  GI50: 0.836 µM (active)
[34]
  GI50: 1.37 µM (inactive)
[35]
  GI50: 1.94 µM (inactive)
[36]
  GI50: 0.925 µM (active)
[37]
  GI50: 1.36 µM (inactive)
[38]
  GI50: 1.51 µM (inactive)
[39]
  GI50: 0.964 µM (active)
[40]
  GI50: 2.02 µM (inactive)
[41]
  GI50: 2.89 µM (inactive)
[42]
  GI50: 1.88 µM (inactive)
[43]
  GI50: 2.13 µM (inactive)
[44]
  GI50: 0.897 µM (active)
[45]
  GI50: 1.34 µM (inactive)
[46]
  GI50: 0.935 µM (active)
[47]
  GI50: 3.77 µM (inactive)
[48]
  GI50: 1.08 µM
[49]
  GI50: 1.31 µM (inactive)
[50]
  GI50: 1.49 µM (inactive)
[51]
  GI50: 6.22 µM (inactive)
[52]
  GI50: 1.53 µM (inactive)
[53]
  GI50: 1.59 µM (inactive)
[54]
  GI50: 1.67 µM (inactive)
[55]
  GI50: 1.47 µM (inactive)
[56]
  GI50: 1.41 µM (inactive)
[57]
  GI50: 1.44 µM (inactive)
[58]
  GI50: 1.29 µM (inactive)

## NC1=C2C(Br)=CN([C@@H]3O[C@H](CO)[C@@H](O)[C@@H]3O)C2C(=O)N=N1 (some centres not stated)
[1]
  GI50: 30.9 µM (inactive)
[2]
  GI50: 9.51 µM (inactive)
[3]
  GI50: 43.1 µM (inactive)
[4]
  GI50: 1.49 µM (inactive)
[5]
  GI50: 2.51 µM (inactive)
[6]
  GI50: 1.64 µM (inactive)
[7]
  GI50: 15.5 µM (inactive)
[8]
  GI50: 30.5 µM (inactive)
[9]
  GI50: 11.3 µM (inactive)
[10]
  GI50: 5.68 µM (inactive)
[11]
  GI50: 2.28 µM (inactive)
[12]
  GI50: 0.475 µM (active)
[13]
  GI50: 0.526 µM (active)
[14]
  GI50: 6.05 µM (inactive)
[15]
  GI50: 2.28 µM (inactive)
[16]
  GI50: 22.4 µM (inactive)
[17]
  GI50: 15.4 µM (inactive)
[18]
  GI50: 4.85 µM (inactive)
[19]
  GI50: 7.93 µM (inactive)
[20]
  GI50: 0.76 µM (active)
[21]
  GI50: 1.27 µM (inactive)
[22]
  GI50: 0.396 µM (active)
[23]
  GI50: 12.4 µM (inactive)
[24]
  GI50: 3.99 µM (inactive)
[25]
  GI50: 18.2 µM (inactive)
[26]
  GI50: 40.4 µM (inactive)
[27]
  GI50: 1.97 µM (inactive)
[28]
  GI50: 2.44 µM (inactive)
[29]
  GI50: 4.94 µM (inactive)
[30]
  GI50: 15.1 µM (inactive)
[31]
  GI50: 0.395 µM (active)
[32]
  GI50: 8.47 µM (inactive)
[33]
  GI50: 1.15 µM (inactive)
[34]
  GI50: 5.58 µM (inactive)
[35]
  GI50: 2.67 µM (inactive)
[36]
  GI50: 1.82 µM (inactive)
[37]
  GI50: 0.811 µM (active)
[38]
  GI50: 2.42 µM (inactive)
[39]
  GI50: 0.577 µM (active)
[40]
  GI50: 15.8 µM (inactive)
[41]
  GI50: 5.32 µM (inactive)
[42]
  GI50: 5.93 µM (inactive)
[43]
  GI50: 0.516 µM (active)
[44]
  GI50: 1.94 µM (inactive)
[45]
  GI50: 9.04 µM (inactive)
[46]
  GI50: 0.223 µM (active)
[47]
  GI50: 6.67 µM (inactive)
[48]
  GI50: 1.25 µM
[49]
  GI50: 5.02 µM (inactive)
[50]
  GI50: 1.03 µM (active)
[51]
  GI50: 3.78 µM (inactive)
[52]
  GI50: 6.89 µM (inactive)
[53]
  GI50: 8.79 µM (inactive)
[54]
  GI50: 7.73 µM (inactive)
[55]
  GI50: 7.38 µM (inactive)
[56]
  GI50: 14.8 µM (inactive)
[57]
  GI50: 22.2 µM (inactive)
[58]
  GI50: 16.6 µM (inactive)

## C[N+](C)=c1nc(N2CCc3ccccc3C2)ss1.[O-][Cl+3]([O-])([O-])[O-]
[1]
  GI50: > 100 µM (inactive)
[2]
  GI50: > 100 µM (inactive)
[3]
  GI50: > 100 µM (inactive)
[4]
  GI50: > 100 µM (inactive)
[6]
  GI50: > 100 µM (inactive)
[7]
  GI50: > 100 µM (inactive)
[8]
  GI50: > 100 µM (inactive)
[9]
  GI50: > 100 µM (inactive)
[10]
  GI50: > 100 µM (inactive)
[12]
  GI50: 54.5 µM (inactive)
[13]
  GI50: 82.8 µM (inactive)
[14]
  GI50: > 100 µM (inactive)
[15]
  GI50: 77.4 µM (inactive)
[16]
  GI50: > 100 µM (inactive)
[17]
  GI50: > 100 µM (inactive)
[18]
  GI50: > 100 µM (inactive)
[19]
  GI50: 42.8 µM (inactive)
[20]
  GI50: 90.4 µM (inactive)
[21]
  GI50: > 100 µM (inactive)
[22]
  GI50: > 100 µM (inactive)
[23]
  GI50: > 100 µM (inactive)
[24]
  GI50: > 100 µM (inactive)
[25]
  GI50: > 100 µM (inactive)
[26]
  GI50: > 100 µM (inactive)
[27]
  GI50: > 100 µM (inactive)
[28]
  GI50: > 100 µM (inactive)
[29]
  GI50: 60.1 µM (inactive)
[30]
  GI50: > 100 µM (inactive)
[31]
  GI50: 30.7 µM (inactive)
[32]
  GI50: 69.3 µM (inactive)
[33]
  GI50: > 100 µM (inactive)
[35]
  GI50: > 100 µM (inactive)
[36]
  GI50: 81.3 µM (inactive)
[37]
  GI50: 82 µM (inactive)
[39]
  GI50: > 100 µM (inactive)
[41]
  GI50: > 100 µM (inactive)
[43]
  GI50: > 100 µM (inactive)
[44]
  GI50: 69.8 µM (inactive)
[45]
  GI50: > 100 µM (inactive)
[46]
  GI50: 34.2 µM (inactive)
[47]
  GI50: > 100 µM (inactive)
[48]
  GI50: 98.2 µM
[49]
  GI50: > 100 µM (inactive)
[51]
  GI50: 83.6 µM (inactive)
[52]
  GI50: > 100 µM (inactive)
[53]
  GI50: > 100 µM (inactive)
[54]
  GI50: > 100 µM (inactive)
[55]
  GI50: > 100 µM (inactive)
[56]
  GI50: > 100 µM (inactive)
[57]
  GI50: > 100 µM (inactive)
[58]
  GI50: > 100 µM (inactive)
